In article PMC11989707, “Synthesis, Characterization, and Preliminary In Vitro Anticancer Activity of Zinc Complexes Containing Amino Acid-Derived Imidazolium-Based Dicarboxylate Ligands” (International Journal of Molecular Sciences, 2025):
Read-outs that look alike come from different tables or passages of the source.

Assays:
[1] = test system: MeWo (human melanoma); assay: Resazurin cell viability assay, melanoma; assay type: cell-based; settings: for IC50: resazurin; for Selectivity Index MeWo: IC50 HaCaT / IC50 MeWo
Experimental: (§1) The cytotoxicity of complexes 2 was evaluated in vitro by determining the half inhibitory concentrations (IC50) against four human cell lines: wild-type BRAF melanoma (MeWo), lung adenocarcinoma (A549), bladder cancer (T24), and non-cancerous skin keratinocytes (HaCaT). […] The viability results, summarized in Table 1 (as μM concentrations) and illustrated in Figure 4, also include the values of the selectivity index (SI). The SI was calculated by dividing the IC50 value in the non-cancerous cells by that in the cancer cells. The higher the SI value, the higher the selectivity of the compound against cancer cells. This parameter also allows for a comparison of the selectivity of the investigated compound with the selectivity of the standard anticancer drug. For comparison, the cytotoxicity of two clinical anticancer drugs, carboplatin and gemcitabine, as well as imidazolium dicarboxylate precursor ligands (HL^R, 1) was evaluated under identical experimental conditions (see viability graphs in Figure 4 and Figure S7). […] Two noteworthy observations can be drawn from Table 1. […] Carboplatin is used for the treatment of ovarian cancer, lung cancer, bladder cancer, and head and neck cancer. Second, these zinc-based complexes were more cytotoxic to cancer cells than to non-malignant HaCaT cells, underscoring their potential therapeutic selectivity.
(§2) HaCaT cells (human keratinocytes) A549 (human lung adenocarcinoma), MeWo (human melanoma), and T24 (human urinary bladder carcinoma) were purchased from Cell Lines Service (CLS). The cells were maintained in Dulbecco’s Modified Eagle Medium (DMEM) supplemented with 10% fetal bovine serum and 1% penicillin/streptomycin. All cell lines were cultured at 37 °C and 5% CO2 with saturating humidity.
(§3) The resazurin assay is a commonly used colorimetric/fluorescent method to assess cell viability. This approach is based on the ability of living cells to convert the blue dye resazurin into the pink soluble resorufin product. The number of viable cells is directly correlated with the amount of resorufin generated. Between 3000 and 6000 cells per well were seeded in 96-well plates and allowed to grow for 24 h. […] The compounds were dissolved in sterile water to prepare a stock solution. Working solutions were obtained by serial dilution in the culture medium and were used immediately to treat the cells. Following this treatment period, the cells were rinsed once with phosphate buffered saline (PBS), and 150 μL of resazurin solution (20 µg/mL in medium) was added to each well. The plates were then incubated for 4–5 h at 37 °C with 5% CO2. Finally, absorbance was measured at 540 and 620 nm using a multiwell plate spectrophotometer (Imark Bio Rad Laboratories Inc., Hercules, CA, USA). The results were reported as percentages of cell viability compared to untreated controls. All data represent the mean ± standard error of the mean (SEM) of at least three independent experiments. The selectivity index (SI) values for each cancer cell line were determined by calculating the ratio of the IC50 value in the non-malignant HaCaT cell line to the IC50 value in the corresponding cancer cell line, based on data from each independent experiment.

[2] = test system: A549 (human lung adenocarcinoma); assay: Resazurin cell viability assay, lung adenocarcinoma; assay type: cell-based; settings: for IC50: resazurin
Experimental: (§4) The cytotoxicity of complexes 2 was evaluated in vitro by determining the half inhibitory concentrations (IC50) against four human cell lines: wild-type BRAF melanoma (MeWo), lung adenocarcinoma (A549), bladder cancer (T24), and non-cancerous skin keratinocytes (HaCaT). The IC50 values were calculated from cell viability values obtained after 72 h of exposure of the drug to cells using the resazurin assay. The viability results, summarized in Table 1 (as μM concentrations) and illustrated in Figure 4, also include the values of the selectivity index (SI). The SI was calculated by dividing the IC50 value in the non-cancerous cells by that in the cancer cells. The higher the SI value, the higher the selectivity of the compound against cancer cells. This parameter also allows for a comparison of the selectivity of the investigated compound with the selectivity of the standard anticancer drug. For comparison, the cytotoxicity of two clinical anticancer drugs, carboplatin and gemcitabine, as well as imidazolium dicarboxylate precursor ligands (HL^R, 1) was evaluated under identical experimental conditions (see viability graphs in Figure 4 and Figure S7). […] Two noteworthy observations can be drawn from Table 1. […] Carboplatin is used for the treatment of ovarian cancer, lung cancer, bladder cancer, and head and neck cancer. Second, these zinc-based complexes were more cytotoxic to cancer cells than to non-malignant HaCaT cells, underscoring their potential therapeutic selectivity.
as §2, §3

[3] = test system: T24 (human urinary bladder carcinoma); assay: Resazurin cell viability assay, bladder cancer; assay type: cell-based; settings: for IC50: resazurin
Experimental: as §1, §2, §3

[4] = test system: HaCaT cells (human keratinocytes); assay: Resazurin cell viability assay, non-malignant keratinocytes; assay type: cell-based; settings: resazurin
Experimental: as §4, §2, §3

[5] = as above; assay type: cell-based, human; settings: human, HaCaT keratinocytes (non-malignant); HaCaT, highest concentrations tested, 72 h (Figure 4); read-out: viability of non-malignant cells
Experimental: as §4, §2, §3

[6] = Homo sapiens, MeWo, 96 h, mean ± SEM (Table S3)
[7] = Homo sapiens, A549, 96 h, mean ± SEM (Table S3)
[8] = IC50 HaCaT / IC50 A549, 96 h, mean ± SEM (Table S3)
[9] = Homo sapiens, 96 h, mean ± SEM (Table S3)
[10] = IC50 HaCaT / IC50 T24, 96 h, mean ± SEM (Table S3)
[11] = Homo sapiens, HaCaT, 96 h, mean ± SEM (Table S3), read-out: IC50 HaCaT (Non-malignant keratinocyte)
[12] = IC50 HaCaT / IC50 A549, 72 h, mean ± SEM
[13] = IC50 HaCaT / IC50 T24, 72 h, mean ± SEM
[14] = 96 h, mean ± SEM (Table S3), read-out: IC50 HaCaT (Non-malignant keratinocyte)

Compound | IC50 [1, 6] [nM] | Selectivity Index MeWo ([1]; 96 h, mean ± SEM (Table S3)) | IC50 [2, 7] [nM] | Selectivity Index A549 [2, 8] | IC50 [3, 9] [nM] | Selectivity Index T24 [3, 10] | IC50 [4, 11] [nM] | further results
CCN(CC)CCNC(=O)c1c(C)[nH]c(/C=C2\C(=O)Nc3ccc(F)cc32)c1C [Sunitinib] | 900 ± 400 | 1.5 ± 0.5 | 1500 ± 700 | 1.2 ± 0.6 | 1900 ± 1100 | 1.5 ± 0.8 | 1000 ± 100 | –
O=c1[nH]cc(F)c(=O)[nH]1 [5-Fluorouracil] | 1300 | 0.3 ± 0.0 | 1900 ± 700 | 0.3 ± 0.1 | 6300 ± 600 | 0.1 ± 0.0 | 400 | –
Nc1ccn([C@@H]2O[C@H](CO)[C@@H](O)C2(F)F)c(=O)n1 [Gemcitabine] | 1.9 ± 1.5 | 5.1 ± 0.2 | 1.9 ± 1.5 | 5.1 ± 0.3 | 1.7 ± 1.5 | 6.5 ± 1.4 | 10.6 ± 4.3 | IC50 ([1]; Homo sapiens, MeWo, 72 h, mean ± SEM): 7.3 ± 0.7 nM; Selectivity Index MeWo ([1]; 72 h, mean ± SEM): 3.3 ± 0.8; cell viability of melanoma cells ([1]; MeWo, highest concentrations tested, 72 h (Figure 4)): ≥ 35%; IC50 ([2]; Homo sapiens, A549, 72 h, mean ± SEM): 5.6 ± 0.1 nM; Selectivity Index A549 [2, 12]: 4.0 ± 0.5; IC50 ([3]; Homo sapiens, 72 h, mean ± SEM): 2.3 ± 0.3 nM; Selectivity Index T24 [3, 13]: 9.3 ± 0.4; IC50 ([4]; Homo sapiens, HaCaT, 72 h, mean ± SEM, read-out: IC50 HaCaT (Non-Malignant Keratinocyte)): 22.1 ± 3.1 nM; viability at 72 h [5]: 13%
CC(=O)O[C@H]1C(=O)[C@@]2(C)[C@H]([C@H](OC(=O)c3ccccc3)[C@]3(O)C[C@H](OC(=O)[C@H](O)[C@@H](NC(=O)c4ccccc4)c4ccccc4)C(C)=C1C3(C)C)[C@]1(OC(C)=O)CO[C@@H]1C[C@@H]2O [Paclitaxel] | 0.7 | 0.5 ± 0.0 | 3.5 ± 0.9 | 0.1 ± 0.0 | 1.4 ± 0.3 | 0.3 ± 0.1 | 0.3 | –
N.N.O=C([O-])C1(C(=O)[O-])CCC1.[Pt+2] [Carboplatin] | – | 0.6 ± 0.2 | – | 0.6 ± 0.2 | – | – | – | IC50 ([1]; 72 h, mean ± SEM): 100000 ± 17400 nM; IC50 ([1]; 96 h, mean ± SEM (Table S3)): 23000 ± 5500 nM; Selectivity Index MeWo ([1]; 72 h, mean ± SEM): 0.4 ± 0.0; IC50 ([2]; 72 h, mean ± SEM): 42900 ± 1400 nM; IC50 ([2]; 96 h, mean ± SEM (Table S3)): 21100 ± 4000 nM; Selectivity Index A549 [2, 12]: 0.8 ± 0.1; IC50 ([3]; 72 h, mean ± SEM): 22100 ± 2600 nM; IC50 ([3]; 96 h, mean ± SEM (Table S3)): 7300 ± 1100 nM; Selectivity Index T24 [3, 13]: 1.7 ± 0.2; IC50 ([4]; 72 h, mean ± SEM, monomer molecular weight used, read-out: IC50 HaCaT (Non-Malignant Keratinocyte)): 35900 ± 3800 nM; IC50 [4, 14]: 11400 ± 1000 nM
N.N.[Cl][Pt][Cl] [Cisplatin] | – | 1.0 ± 0.0 | – | 0.6 ± 0.1 | – | 1.3 ± 0.0 | – | IC50 ([1]; 96 h, mean ± SEM (Table S3)): 2200 ± 600 nM; IC50 ([2]; 96 h, mean ± SEM (Table S3)): 3800 ± 100 nM; IC50 ([3]; 96 h, mean ± SEM (Table S3)): 1600 ± 400 nM; IC50 [4, 14]: 2200 ± 500 nM
COc1cccc2c1C(=O)c1c(O)c3c(c(O)c1C2=O)C[C@@](O)(C(=O)CO)C[C@@H]3O[C@H]1C[C@H](N)[C@H](O)[C@H](C)O1 [Doxorubicin] | 15.3 ± 3.6 | 0.6 ± 0.1 | 38.4 ± 6.6 | 0.2 ± 0.0 | 29.8 ± 2 | 0.3 ± 0.0 | 8.1 | –
